Measured values from US12059413B2, “Methods of inhibiting viruses using compositions targeting TSG101-ubiquitin interaction” (The Research Foundation for the State University of New York, priority 2016, dated 2024).

Columns and labels:
[1] = Conversion of prazoles to sulfenamide / half-life; format: physicochemical
Text: To measure sulfenamide formation: Dissolve each compound in water/buffer and measure the formation of colored compounds by UV-visible absorption, since the initial compound is colorless and the final compound (the sulfenamide dimer) is colored.

Tsg101 UEV domain = target: T1, Tsg101 UEV domain (Homo sapiens, UniProt Q99816); experiment: NMR / LC-MS binding of compound to Tsg101 UEV domain
T1 construct: Tsg101 UEV domain (residues 2-145) was encoded in a pET-28b vector; His6-TEV site (N, cleaved yes); made in house; host or cells: E. coli Rosetta 2 (DE3) pLysS
T1 sequence (Q99816 2-145): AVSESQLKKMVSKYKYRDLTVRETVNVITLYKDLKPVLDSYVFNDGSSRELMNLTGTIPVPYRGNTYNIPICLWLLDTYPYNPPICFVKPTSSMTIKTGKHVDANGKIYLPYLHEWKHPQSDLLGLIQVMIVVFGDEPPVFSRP
Description: N16 (20 mM solution, DMSO) was added to Tsg101 UEV domain in a 10:1 ratio (N16 excess).
For binding studies using NMR spectroscopy, the following complexes were made: Tsg101 UEV-N16, UEV-PTAP, UEV-Ub, UEV-N16-PTAP, and UEV-N16-Ub, all in Tsg101 NMR buffer: 20 mM potassium phosphate, 50 mM NaCl, pH 5.8, with UEV concentration of 200 μM.

Tsg101 = target: T2, Tsg101 (Homo sapiens, UniProt Q99816); experiment: NWU screening / in vitro binding assay
T2 sequence (Q99816 2-145 limits assumed): T1 sequence (Q99816 2-145)
Text: Pantoprazole, Lansoprazole/Dexlansoprazole (dexlansoprazole is the active enantiomer of the racemic lansoprazole), and Rabeprazole were in the NWU screen but were not considered hits.

293T cells = experiment: Metabolic activity, WST-1 assay, 293T cells; format: cell-based; settings: metabolic measurements, WST-1 reagent
Description: FIG. 20A-C. N16 inhibition is virus-specific. A) N16 IC50 for Hela and 293T cells. […] Values were calculated by measuring metabolic activity (WST-1 Assay, Roche Applied Science) after cells were grown for 24 hr in N16. Data points represent the mean of 2 assays, 3 time points each for each cell line. […] Values in the absence or presence of N16 (50 uM) were 12% and 13%, respectively). C) N16 effect on EGF-stimulated EFGR degradation. Cells maintained for 24 hr in media containing DMSO alone or DMSO and N16 were stimulated with EGF ligand for a 90 min period and then assessed for EGFR steady-state level by Western analysis. EGFR levels for unstimulated and stimulated sample pairs are shown. A) n=2; B) n=2; C) n=2.
FIG. 27A-C. Effect of N-Acetyl Cysteine (NAC) on N16-mediated inhibition of VLP production and intracellular Gag accumulation. […] A concentration of 3 mM NAC was therefore used to test the effect of the antioxidative reagent on the N16 inhibitory effect. N16 (0, 12, 25, 50, 75, and 100 uM) was added 8.5 hr prior to transfection with pNL4-3ΔEnv. Cells were harvested 16 hr later. […] C) Quantitative analysis. n=2.
Cells were grown in 96-well trays for 24 hr with increasing levels of drug, metabolic activity was measured using WST-1colorimetric assay (Roche), and IC50 values were calculated (Prism 6, Graph Pad Software Inc.).

proteasome = proteasome (Homo sapiens, UniProt P20618+P28074); settings: Gelman et al.; cited from earlier work

For `Cc1c(OCC(F)(F)F)ccnc1C[S+]([O-])c1nc2ccccc2[nH]1` (racemic) [Lansoprazole], the “slowness of sulfenamide conversion relative to Rabeprazole” value [1] was roughly 2 ×, the “residue bound in Tsg101 UEV (NMR and fluorescence perturbances)” value (Tsg101 UEV domain) was “bind to residue C73” and the “binding in the NWU screening assay” value (Tsg101) was “bound weakly”.
For `CC(=O)N[C@@H](CS)C(=O)O` [NAC, N-Acetyl Cysteine], the “concentration up to which 293T cells were robust” value (293T cells) was “at least 4 mM”.
For `CC(C)C[C@H](NC(=O)[C@H](Cc1ccccc1)NC(=O)c1cnccn1)B(O)O` [bortezomib], the “concentration giving proteasome inhibition, previous studies” value (proteasome) is listed as no less than 5 nM.
